Results as given in patent EP0051687A1, “Maleimides and process for the preparation of same” (MITSUI TOATSU CHEMICALS, Inc., priority 1980, dated 1982).

Test: Solubility in organic solvents at room temperature
Assay type: physicochemical

Solubility of 2-(4'-hydroxyphenyl)-2-(4"-maleimidophenyl) propane (at room temperature ) (Organic Solvent: Acetone): 50 wt.% or higher
Solubility of 2-(4'-hydroxyphenyl)-2-(4"-maleimidophenyl) propane (at room temperature ) (Organic Solvent: Dimethylformamide): 50 wt.% or higher
Solubility of 2-(4'-hydroxyphenyl)-2-(4"-maleimidophenyl) propane (at room temperature ) (Organic Solvent: Dioxane): 36 wt.%
Solubility of 2-(4'-hydroxyphenyl)-2-(4"-maleimidophenyl) propane (at room temperature ) (Organic Solvent: Ethanol): 11 wt.%
Solubility of 2-(4'-hydroxyphenyl)-2-(4"-maleimidophenyl) propane (at room temperature ) (Organic Solvent: Methanol): 20 wt.%
Solubility of 2-(4'-hydroxyphenyl)-2-(4"-maleimidophenyl) propane (at room temperature ) (Organic Solvent: Methyl ethyl ketone): 46 wt.%
Solubility of 2-(4'-hydroxyphenyl)-2-(4"-maleimidophenyl) propane (at room temperature ) (Organic Solvent: Tetrahydrofuran): 50 wt.% or higher
Compound: CC(C)(c1ccc(O)cc1)c1ccc(N2C(=O)C=CC2=O)cc1 [2-(4'-hydroxyphenyl)-2-(4"-maleimidophenyl) propane]
